Data from patent US20170260169A1, “INHIBITORS FOR STEROID RESPONSE ELEMENTS AND RNA POLYMERASE II AND RELATED METHODS” (priority 2007, published 2017).

Legend:
[1] = Liver microsomal stability, mouse; settings: 1 μM, Mouse, 1 hr at 37° C., 1 mg/ml microsomes
Description: Briefly, each polyamide was incubated with 1 mg/ml human or mouse microsomes at 37° C. The reaction was incubated in 100 mM KH2PO4, 2 mM NADPH, 3 mM MgCl2 at pH 7.4. Samples were also incubated in the absence of NADPH to detect NADPH-free degradation. After 60 min the samples were mixed with an equal volume of ice cold methanol stop solution. The mixture was allowed to sit on ice for at least 10 min and mixed with an equal volume of water. The samples were then centrifuged to remove the precipitates and the samples were analyzed by LC/MS/MS. Data represents % remaining by comparing with time zero concentration. The experiments were performed in duplicate.

[2] = tested on: GILZ enhancer GRE2; assay: Quantitative DNase I footprint titration on pKAM5 fragment, GRE2; format: binding
Description: (§1) Detailed experimental protocols are reported elsewhere (44). The GILZ enhancer contains two GREs separated by 22 base pairs (46). GRE 1 is 5'-[NT]=3' (SEQ ID NO:5) and GRE 2 is […] ID NO:7). The DNA binding of polyamides 1 and 2 on these sequences was measured by quantitative DNase I footprint. […] […]).

[3] = tested on: FKBP5 mRNA expression in LNCaP cells; assay: DHT-induced FKBP5 mRNA in LNCaP cells; format: cell-based
[4] = tested on: RNAP2 large subunit RPB1; assay: Immunoblot of RPB1 protein in LNCaP cells; format: cell-based
Description: Samples for immunoblot analysis were prepared by plating LNCaP or DU145 cells at 1 million cells per 10 cm plate. Cells were allowed to adhere for 24-36 hr prior to incubation with compound. After the appropriate incubation time cells were washed once with ice cold PBS and harvested in ice cold 125 μL lysis buffer (50 mM Tris-HCl pH 7.4, 150 mM NaCl, 1 mM EDTA, 1% Triton X100) containing protease inhibitor cocktail (Roche), 1 mM PMSF (Sigma), and phosphatase inhibitors (Sigma). Samples were allowed incubate on ice for 10 min with vortexing once every 3 min. Cellular debris was pelleted by spinning at 14,000 rpm for 15 min to collect the supernatant. Samples were then quantified for protein content with the Bradford assay (Bio-rad) and boiled with 4× sample buffer (Li-Cor) for 5 min. Protein electrophoresis was performed in 4-20% precast Tris glycine SDS gels (Bio-rad) and transferred to PVDF membranes. Membrane blocking was done with Odyssey Blocking Buffer (Li-Cor). The following antibodies used to probe changes in protein levels or phosphorylation states: RBP1 (Santa Cruz Biotechnology, N20), p53 (Santa Cruz Biotechnology, DO1), phospho-Chk2-Thr68 (Cell Signaling Technology), Phospho-p53-Ser15 (Cell Signaling Technology), phosphor-H2A.X-Ser139 (Cell Signaling Technology), phosphor-ATM-Ser1981 (Abcam), phosphor-DNA-PKcs-Ser2056 (Abcam), and […] (Abcam). […]

[5] = tested on: GILZ enhancer GRE1; assay: Quantitative DNase I footprint titration on pKAM5 fragment, GRE1; format: binding
Description: as §1

[6] = tested on: PSA mRNA expression in LNAR cells; assay: PSA mRNA expression in LNAR cells (hormone refractory, over-express AR); format: cell-based
Description: The cell line LNAR was used, which has been engineered to over-express AR (14). LNAR cells over-express AR and form hormone refractory tumors when xenografted in mice (14).

[7] = tested on: AR occupancy at the FKBP5 intronic enhancer; assay: Chromatin immunoprecipitation with anti-AR, FKBP5 fifth intron enhancer; format: cell-based; settings: 10 μM
[8] = tested on: RPB1 mRNA; assay: Quantitative RT-PCR of RPB1 transcript in LNCaP cells; format: cell-based; settings: 10 μM
Description: RNA was extracted using RNEasy columns (Qiagen) according to manufacturer's protocols. cDNA was generated from RNA by reverse transcriptase (Transcriptor First Strand cDNA kit, Roche). Quantitative real-time RT-PCR was performed using SYBR Green PCR Master Mix (Applied Biosystems) on an ABI 7300 instrument. mRNA was measured relative to B glucuronidase as an endogenous control.

[9] = tested on: PSA protein secretion by LNCaP cells; assay: Secreted PSA protein by ELISA, LNCaP cells; format: cell-based; settings: after DHT stimulation, compared with 2 or untreated control
Description: LNCaP cells (ATCC) were plated in 24-well plates at a density of 40-50×10^3 cells per well (80-100×10^3 cells per ml) in RPMI medium 1640 (ATCC) supplemented with 10% FBS (Irvine Scientific, Santa Ana, Calif.). After 72 h, the medium was replaced with RPMI medium 1640 containing 10% charcoal stripped FBS with or without polyamides at the designated concentrations. Cells were grown for an additional 48 h and then treated with 1 nM DHT for 16 h. When appropriate, bicalutamide was added 2 h before DHT stimulation. Isolation of RNA and cDNA synthesis was performed as described (21). Quantitative real-time RT-PCR was performed with SYBR Green PCR Master Mix (Applied Biosystems, Foster City, Calif.) on an ABI 7300 instrument. PSA mRNA was measured relative to β-glucuronidase as an endogenous control. Primer sequences are available upon request. Cell-culture supernatants were collected for an ELISA (R & D Systems, Minneapolis, Minn.) to measure PSA protein according to the manufacturer's protocol.

[10] = Escalating single dose subcutaneous injections, male C57BL/6J mice (weight, histopathology, serum)
Description: Representative mice (n=2 per dosing group unless otherwise noted) were subjected to histopathology analysis by a veterinary pathologist. Blood from all mice was sampled and sent for analysis of serum markers of target organs. […] These mice were euthanized when significant duress was apparent.
All animal experiments were conducted under an approved protocol at the California Institute of Technology. Animals were allowed to adjust for 3 days after arrival before treatment. […] Animals were monitored daily for weight loss over 9 days and sacrificed. […] Weight was recorded on days of injection and at the experiment endpoint.
Sacrificed animals from weight loss experiments were fixed in 10% formalin and sent for histopathology analysis by IDEXX-RADIL. Histopathologic analysis was performed on the cecum, duodenum, heart, ileum, kidney, liver, lung, pancreas, spleen, and stomach. Tissue analysis was performed as a blind study to the identity of the animals.
Serum from treated animals were collected by retroorbital bleeding. Blood samples were centrifuged at 6,000 rpm for 5 min to collect the serum. Serum ALT, AST, total bilirubin, BUN, and creatinine levels were sent for analysis by IDEXX-RADIL. Serum analysis was performed as a blind study to the identity of the animals.

[11] = tested on: RPB1; assay: RPB1 protein ELISA in LNCaP cells; format: cell-based; settings: polyamide 10 μM 72 hr; doxorubicin 1 μM 24 hr
Description: […] Cells treated with DMSO vehicle and 1 μM doxorubicin for 24 h were used as control. Cellular RBP1 levels were determined by a RPB1 specific ELISA kit (Cusabio Life Sciences) according to manufacturer's instructions. Total cellular p53 protein level was determined with a pan-p53 ELISA kit (Roche) according to manufacturer's instructions. Assays were performed in biological triplicates.

[12] = cited from earlier work
[13] = tested on: transcripts in DHT-stimulated LNCaP cells; settings: previous studies (12); cited from earlier work
[14] = tested on: GR occupancy at the GILZ enhancer; assay: Chromatin immunoprecipitation with anti-GR, GILZ enhancer, A549 cells; format: cell-based
Description: A549 cells were plated in 15-cm diameter plates. Media, polyamide treatment, time course, and […] were the same as described above. After dexamethasone treatment, cells were treated with 1% formaldehyde for 10 min. Chromatin was isolated and sheared. Antibodies to GR (graciously gifted by Keith Yamamoto) were used to immunoprecipitate GR-bound DNA fragments. Crosslinks were reversed, and PCRs using primers targeted to the regions of interest were used to assess enrichment of bound fragments as compared with mock-precipitated (no antibody) controls. PCRs were monitored with SYBR Green PCR Master Mix (Applied Biosystems) on an ABI 7300 instrument. Primer sequences and a more detailed experimental protocol are available upon request.

SMILES: CN(CCCNC(=O)c1cccc(C(=O)O)c1)CCCNC(=O)c1cc(NC(=O)c2cc(NC(=O)c3cc(NC(=O)c4nc(NC(=O)[C@H](N)CCNC(=O)c5cc(NC(=O)c6cc(NC(=O)c7cc(NC(=O)c8nccn8C)cn7C)cn6C)cn5C)cn4C)cn3C)cn2C)cn1C [Polyamide 1, ImPyPyPy-2-(R)H^2Nγ-ImPyPyPy-NHMe-IPA]
- Mean remaining parent NADPH-free [1]: 96.8%
- Mean remaining parent with NADPH [1]: 95.2%
- Ka [2]: 8.8±1.8×10^9
- inhibition of DHT-induced expression of FKBP5 [3]: ≈ 60%
- RPB1 protein level [4]: depletion of RPB1 in a time- and concentration-dependent manner
- Ka [5]: 1.9±0.8×10^10
- effect on DHT-induced PSA mRNA expression in LNAR cells [6]: maintains efficacy
- occupancy of AR at the FKBP5 intronic enhancer [7]: decreased occupancy
- expression of RPB1 mRNA [8]: modestly increased
- supernatant concentrations of PSA protein [9]: reduced
- tolerability, behavior and morbidity after single SC dose ([10]; 1, 3, 10 mg/kg): no change in behavior and appearance
- weight loss after single SC dose ([10]; 1, 3, 10 mg/kg, 9 days): significant weight loss only at 10 mg/kg
- liver histopathology ([10]; single SC 3 mg/kg): Mild hepatocellular necrosis and apoptosis
- kidney histopathology ([10]; single SC 10 mg/kg): Milder tubular regeneration and karyomegaly
- liver histopathology ([10]; single SC 10 mg/kg): Mild hepatocellular necrosis and apoptosis
- serum kidney markers creatinine and BUN ([10]; single SC dose): not observed for any dose level
- serum liver markers AST, ALT, total bilirubin ([10]; single SC dose): significant elevation of AST, ALT, and total bilirubin at 10 mg/kg, indicative of acute damage to liver cells, and moderate elevation of ALT at 3 mg/kg
- RPB1 protein [11]: decreases
- animal toxicity after single subcutaneous administration ([12]; female C57BL/6J mice, 77 at 2.5 and 5 mg/kg, 80 at 2.3 and […]): did not adversely affect the animals
- weight loss ([12]; female mice, 10 mg/kg SC): greater than 15%
- doses without toxicity ([12]; mouse, in vivo): less than 10 mg/kg
- share of DHT-induced transcripts affected [13]: approximately 30%
- occupancy of GR at the GILZ enhancer ([14]; 1 μM as printed): decreased occupancy
- GR occupancy at the GILZ enhancer ([14]; 10 μM, FIG. 17 legend): decreased
